Where two headings read alike, the source gives them in different places.
Tests used:
[1] = target: hCA IX (Homo sapiens (Human), UniProt Q16790)
[2] = target: hCA XII (Homo sapiens (Human), UniProt O43570); details: read-out: KI (nM) Activity hCAXII; Table 1
[3] = target: hCA I (Homo sapiens (Human), UniProt P00915); details: read-out: KI (nM) Activity hCAI; Table 1
[4] = tested on: MDA-231 LM2-4 Luc+ cells; assay: 3D Matrigel invasion assay in hypoxia; format: cell-based, human; details: 4 days in hypoxia
Experimental: A 3D “on-top” matrigel culture assay was performed as described previously (Lee et al, (2007) Nat Methods 4:359-365). […] Cells were allowed to attach for 45 minutes with side-to-side agitation every 10-15 minutes to prevent clumping of cells in the center of the well. An additional 100 μl/well media containing 10% matrigel was added to the cells and cultures were incubated in hypoxia for 4 days. Images were acquired and cultures were fixed for TUNEL using the “whole culture fixation” methodology outlined in Lee et al, (2007) Nat Methods 4:359-365).
Treatment with novel sulfonamide inhibitors of CAIX attenuates hypoxia-induced invasion of human breast cancer cells grown in 3D Matrigel™ cultures (FIG. 16). Cells were cultured in 3D “on-top” Matrigel™ assays for 4 days in hypoxia in the presence of inhibitors. DMSO-treated cell cultures served as controls. The percentage concentration of DMSO and molar concentration of inhibitors are indicated. Representative phase contrast images are shown.

[5] = tested on: 4T1 mammary tumor cells; assay: Experimental metastasis assay, intravenous 4T1 cells, bioluminescence; format: in vivo, mouse; details: i.v. 4T1 cells, three i.p. doses over 6 days, imaged 24 h after third dose
Experimental: For studies involving genetic depletion of CAIX, 4T1 or 67NR cells (5×10^5) were injected directly into the tail vein of 7-9 week-old female BALB/c mice. Mice were imaged once per week to follow the growth of metastases. Mice were euthanized 20 days post-injection and lungs were resected for further analysis. Tumor burden in the lung was quantified by manually counting nodules visible on the lung surface. For studies using sulphonamide inhibitors, 4T1 cells (1-5×10^5) were injected as described above (Pacchiano et al, (2011) J Med Chem 54:1896-1902).
Animals were treated 24 hours post inoculation of cells. Three doses were administered by i.p. injection over 6 days and the mice were imaged 24 hours following the third dose of inhibitor. […] Quantification of tumor-derived bioluminescence is shown in 12C. Regions of interest were positioned around metastatic foci and total flux (photons/sec) at the mouse surface was calculated. Data are reported as the mean±s.e.m. N=4 per group. *P<0.05.
4T1 cells were injected directly into the tail vein of BALB/c mice. […] Vehicle and inhibitor were administered by i.p. injection. Shown are representative images of tumor-cell derived bioluminescence in control and inhibitor-treated animals.

[6] = tested on: 4T1 cells; assay: Measurement of extracellular pH in hypoxia, 4T1 cells; format: cell-based, mouse; details: 72 h, 400 uM MST-017
Experimental: (§1) Changes in solution pH were assessed using procedures published previously (29, 42, 43). In brief, cells were plated at appropriate density (1×10^4 cells/cm2 for 4T1 cells and its transfected derivatives, 2×10^4 cells/cm2 for 66cl4 cells, 1×10^4 cells/cm2 for 67NR cells and its transfected derivatives) in 60 mm dishes and allowed to recover overnight. A standard volume of 3 ml of fresh media/dish was then added and cells were incubated in normoxia (air+5% CO2) or hypoxia (1% O2 and 5% CO2 balanced with nitrogen) for 72 h. Care was taken to ensure that cultures grown in normoxia and hypoxia were at similar confluence and contained similar cell numbers at the time of medium collection. Collected spent media was maintained at 37° C. and pH was measured immediately using a digital pH meter. […] Cells were harvested on ice for qRT-PCR and Western blot analysis.
(§2) Ureido sulfonamides are new.
(§3) Cells were cultured for 72 h in the presence of 10 μM MST-017. Shown in FIG. 9 are representative images of the FITC-tagged inhibitor bound to the cell lines in the indicated conditions. […] For each cell line, changes in the extracellular pH in hypoxia were assessed relative to the baseline extracellular pH measured in parallel cultures grown in normoxia. *P<0.001 with a two-sided Student's t-test, compared to cells cultured without inhibitor.

[7] = tested on: 66cl4 cells; assay: Measurement of extracellular pH in hypoxia, 66cl4 cells; format: cell-based, mouse; details: 72 h, 600 uM MST-017
Experimental: as §1, §2
as §3, with “Shown” for “Cells were cultured for 72 h in the presence of 10 μM MST-017. Shown”

[8] = tested on: 67NR-derived tumors; details: mouse, in vivo
Experimental: For in vivo studies, the MST-017 inhibitor was administered by i.p. injection (first two doses were administered i.v.) at 75 mg/kg and 150 mg/kg 3× per week for 2 weeks. […] The compounds were solubilized in PEG400/ethanol/saline prior to injection. Vehicle components were held constant as inhibitor concentrations were varied.
(§4) Primary tumor growth rates were calculated from caliper measurements using the modified ellipsoid formula (L×W^2)/2.

[9] = tested on: 4T1 primary tumors; details: mouse, in vivo
Experimental: For in vitro studies, the compounds were dissolved in DMSO, stored at −80° C. and diluted into culture medium just prior to application. […] For in vivo studies, the MST-017 inhibitor was administered by i.p. injection (first two doses were administered i.v.) at 75 mg/kg and 150 mg/kg 3× per week for 2 weeks. […] The compounds were solubilized in PEG400/ethanol/saline prior to injection. Vehicle components were held constant as inhibitor concentrations were varied.
as §4
Animals were inoculated orthotopically with 4T1 cells. Tumors were allowed to establish for 14 days. Mice were injected with the indicated doses of MST-017 3× per week for 2 weeks. Left panel, tumor growth was monitored by caliper-based measurement. […] Vehicle-treated and untreated animals served as controls. *P<0.02, **P<0.01 using a 2-sided Student's t-test, compared to vehicle controls.
The weights of treated animals were monitored as a measure of general inhibitor toxicity. Mice were weighed just prior to each dose of the CAIX inhibitor.

[10] = read-out: KI (nM) Activity hCAIX, Table 1
[11] = read-out: Ki (nM) hCA IX, Table 2
[12] = read-out: Ki (nM) hCA IX, Table 3

Sequence of hCA I (P00915 whole entry): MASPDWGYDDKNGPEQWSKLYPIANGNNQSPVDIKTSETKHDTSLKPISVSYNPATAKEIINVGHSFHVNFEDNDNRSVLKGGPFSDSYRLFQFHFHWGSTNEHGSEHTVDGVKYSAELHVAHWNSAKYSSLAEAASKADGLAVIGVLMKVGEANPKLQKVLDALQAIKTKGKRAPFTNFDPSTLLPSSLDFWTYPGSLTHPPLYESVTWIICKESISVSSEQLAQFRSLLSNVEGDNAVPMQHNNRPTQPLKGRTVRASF
Sequence of hCA XII (O43570 25-354): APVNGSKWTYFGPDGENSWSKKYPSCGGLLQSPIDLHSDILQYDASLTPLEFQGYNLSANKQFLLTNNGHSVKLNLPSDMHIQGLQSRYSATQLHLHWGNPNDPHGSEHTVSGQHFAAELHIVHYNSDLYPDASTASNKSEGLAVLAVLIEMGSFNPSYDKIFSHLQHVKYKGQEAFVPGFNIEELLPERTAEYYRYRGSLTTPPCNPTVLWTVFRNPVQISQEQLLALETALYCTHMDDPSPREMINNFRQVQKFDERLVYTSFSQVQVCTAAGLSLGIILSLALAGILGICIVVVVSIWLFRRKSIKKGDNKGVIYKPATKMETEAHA

For `N#Cc1ccc(NC(=O)Nc2ccc(S(N)(=O)=O)cc2)cc1` [MST-115, 4-{[(4′-Cyanophenyl)carbamoyl]amino}benzenesulfonamide], the Ki [1, 10] was 6 nM, the Ki [2] was 6.5 nM and the Ki [3] was 57 nM.
With `NS(=O)(=O)c1ccc(NC(=O)Nc2ccc(Br)cc2)cc1` [MST-105, 4-({[(4′-Bromophenyl)amino]carbonyl}amino)benzenesulfonamide] the Ki [1, 10] was 69.3 nM and the Ki [2] was 7.9 nM.
In the case of `CCCCc1ccc(NC(=O)Nc2ccc(S(N)(=O)=O)cc2)cc1` [MST-112, 4-({[(4′-Butylphenyl)amino]carbonyl}amino)benzenesulfonamide], the Ki [1, 10] is reported as 376 nM and the Ki [2] is reported as 28.5 nM.
`NS(=O)(=O)c1ccc(NC(=O)Nc2ccc(Cl)cc2)cc1` [MST-124, 4-{([(4′-chlorophenyl)amino]carbonylamino)}benzenesulfonamide] was tested, and the Ki [2] was 5.3 nM.
In the case of `CC(C)c1ccc(NC(=O)Nc2ccc(S(N)(=O)=O)cc2)cc1` [MST-111, 4-{([(4′-Isopropylphenyl)amino]carbonyl)amino}benzenesulfonamide], the Ki [1, 10] is reported as 541 nM and the Ki [2] is reported as 49.7 nM.
For `NS(=O)(=O)c1cccc(NC(=O)Nc2cccc([N+](=O)[O-])c2)c1` [MST-130, 3-(3-(3′-Nitrophenyl)ureido)benzenesulfonamide], the Ki [1, 11] was 7.9 nM and the hypoxia-induced invasion [4] was “inhibit invasion”.
With `NS(=O)(=O)c1ccc(NC(=O)Nc2cc([N+](=O)[O-])ccc2Cl)cc1` [MST-145, 4-(3-(2′-Chloro-5-nitrophenyl)ureido)benzenesulfonamide] the Ki [1, 12] was 8.2 nM.
`CC(=O)c1ccc(NC(=O)Nc2cccc(S(N)(=O)=O)c2)cc1` [MST-131, 3-(3-(4′-Acetylphenyl)ureido)benzenesulfonamide] was tested, and the Ki [1, 11] was 15.1 nM.
In the case of `NS(=O)(=O)c1ccc(NC(=O)Nc2c(F)c(F)c(F)c(F)c2F)cc1` [MST-107, 4-{[(Pentafluorophenyl)carbamoyl]amino}benzenesulfonamide], the Ki [1, 10] is reported as 5.4 nM, the hypoxia-induced invasion [4] is reported as “inhibit invasion” and the Ki [2] is reported as 5.1 nM.
For `NS(=O)(=O)c1ccc(NC(=O)Nc2cccc([N+](=O)[O-])c2)cc1` [MST-119, 4-{[(3′-Nitrophenyl)carbamoyl]amino}benzenesulfonamide], the Ki [1, 10] was 0.9 nM, the hypoxia-induced invasion [4] was “inhibit invasion” and the “formation of metastases (tumor-derived bioluminescence)” value [5] was “reduces the formation of metastases”.
With `COc1ccc(NC(=O)Nc2ccc(S(N)(=O)=O)cc2)c(C)c1` [MST-120, 4-{([(4′-Methoxy-2′-methylphenyl)amino]carbonyl)amino}benzenesulfonamide] the Ki [2] was 6 nM.
For `NS(=O)(=O)c1ccc(NC(=O)Nc2cc(Cl)ccc2Cl)cc1` [MST-144, 4-(3-(2′,5′-dichlorophenyl)ureido)benzenesulfonamide], the Ki [1, 12] was 8.9 nM.
For `NS(=O)(=O)c1ccc(NC(=O)Nc2ccc(Oc3ccccc3)cc2)cc1` [MST-117, 4-({[(4′-Phenoxyphenyl)amino]carbonyl}amino)benzenesulfonamide], the Ki [1, 10] was 69.1 nM, the Ki [2] was 7.1 nM and the Ki [3] was 604 nM.
`COc1ccccc1NC(=O)Nc1ccc(S(N)(=O)=O)cc1` [MST-108] gave a Ki [1, 10] of 465 nM, a Ki [2] of 61.2 nM and a Ki [3] of 92 nM.
Work on `CC(=O)c1ccc(NC(=O)Nc2ccc(S(N)(=O)=O)cc2)cc1` [MST-109, 4-{([(4′-Acetylphenyl)amino]carbonyl)amino}benzenesulfonamide] yielded a Ki [2] of 4.6 nM.
Work on `N#Cc1ccccc1NC(=O)Nc1ccc(S(N)(=O)=O)cc1` [MST-116, 4-{([(2′-Cyanophenyl)amino]carbonyl)amino}benzenesulfonamide] yielded a Ki [1, 10] of 0.3 nM, a Ki [2] of 4.6 nM and a Ki [3] of 10.9 nM.
`NS(=O)(=O)c1ccc(NC(=O)Nc2ccc(F)cc2F)cc1` [MST-142, 4-(3-(2′,4′-difluorophenyl)ureido)benzenesulfonamide] gave a Ki [1, 12] of 3.7 nM.
In the case of `NS(=O)(=O)c1ccc(NC(=O)Nc2ccc(F)c(F)c2F)cc1` [MST-140, 4-(3-(2′,3′,4′-trifluorophenyl)ureido)benzenesulfonamide], the Ki [1, 12] is reported as 9.6 nM.
Work on `NS(=O)(=O)c1ccc(NC(=O)Nc2ccc(I)cc2)cc1` [MST-106, 4-{[(4′-Iodophenyl)carbamoyl]amino}benzenesulfonamide] yielded a Ki [1, 10] of 24.5 nM and a Ki [2] of 4.3 nM.
In the case of `NS(=O)(=O)c1ccc(NC(=O)Nc2cc(F)c(F)cc2F)cc1` [MST-137, 4-(3-(2′,4′,5′-trifluorophenyl)ureido)benzenesulfonamide], the Ki [1, 12] is reported as 7.6 nM.
`NS(=O)(=O)c1ccc(NC(=O)Nc2cc(C(F)(F)F)ccc2F)cc1` [MST-138, 4-(3-(2′-fluoro-5′-(trifluoromethyl)phenyl)ureido)benzenesulfonamide] showed a Ki [1, 12] of 7.4 nM.
`NS(=O)(=O)c1cccc(NC(=O)Nc2ccc(F)cc2)c1` [MST-129, 3-(3-(4′-Fluorophenyl)ureido)benzenesulfonamide] was tested, and the Ki [1, 11] was 10.2 nM.
Work on `CC(C)c1ccccc1NC(=O)Nc1cccc(S(N)(=O)=O)c1` [MST-132, 3-(3-(2′-Isopropylphenyl)ureido)benzenesulfonamide] yielded a Ki [1, 11] of 18.5 nM.
For `NS(=O)(=O)c1ccc(CCNC(=S)Nc2ccc(-c3c4ccc(=O)cc-4oc4cc(O)ccc34)c(C(=O)O)c2)cc1` [MST-017], the “change in extracellular pH” value [6] was “reversed acidification of the extracellular medium”, the “change in extracellular pH” value [7] was “reversed acidification of the extracellular medium” and the tumor growth [8] was “no significant effect”. The “weights of treated animals” value [8] was “no significant weight reduction”, the tumor growth [9] was “significant inhibition of tumor growth” and the “weights of treated animals” value [9] was “no significant weight reduction”.
`NS(=O)(=O)c1cccc(NC(=O)Nc2ccc(I)cc2)c1` [MST-128, 3-(3-(4′-Iodophenyl)ureido)benzenesulfonamide] was tested, and the Ki [1, 11] was 13.1 nM.
With `NS(=O)(=O)c1ccc(NC(=O)Nc2ccccc2F)cc1` [MST-141, 4-(3-(2′-fluorophenyl)ureido)benzenesulfonamide] the Ki [1, 12] was 7.7 nM.
`CC(C)c1ccccc1NC(=O)Nc1ccc(S(N)(=O)=O)cc1` [MST-110, 4-{([(2′-Isopropylphenyl)amino]carbonyl)amino}benzenesulfonamide] showed a Ki [1, 10] of 0.5 nM and a Ki [2] of 4.2 nM.
`CCCCOc1ccc(NC(=O)Nc2ccc(S(N)(=O)=O)cc2)cc1` [MST-113, 4-{[(4′-Butoxyphenyl)carbamoyl]amino}benzenesulfonamide] showed a Ki [1, 10] of 0.8 nM and a Ki [2] of 2.5 nM.
`NS(=O)(=O)c1ccc(NC(=O)Nc2ccc(Cl)cc2F)cc1` [MST-134, 4-(3-(4′-chloro-2-fluorophenyl)ureido)benzenesulfonamide] showed a Ki [1, 12] of 5.1 nM.
With `NS(=O)(=O)c1ccc(NC(=O)NC2CCCC2)cc1` [MST-122, 4-[(Cyclopentylcarbamoyl)amino]benzenesulfonamide] the Ki [1, 10] was 7.3 nM and the Ki [2] was 7 nM.

Source: patent US9962398B2, “Sulfonamide compounds for inhibition of metastatic tumor growth” (Welichem Biotech Inc., priority 2010, dated 2018)
